“And” between values parts separate entries of the source, which are not always exact repeats. Equal values may be shown once.
Biological target: T1, DrOTOP1 L385W (Danio rerio, UniProt Q7ZWK8, L385W)
T1 construct: A previously generated codon-optimized full-length DrOTOP1[8]; (UniProt: Q7ZWK8) construct; expressed in transfected cells; host or cells: HEK-293 (CRL-1573, ATCC)
T1 sequence (Q7ZWK8 1-586 L385W): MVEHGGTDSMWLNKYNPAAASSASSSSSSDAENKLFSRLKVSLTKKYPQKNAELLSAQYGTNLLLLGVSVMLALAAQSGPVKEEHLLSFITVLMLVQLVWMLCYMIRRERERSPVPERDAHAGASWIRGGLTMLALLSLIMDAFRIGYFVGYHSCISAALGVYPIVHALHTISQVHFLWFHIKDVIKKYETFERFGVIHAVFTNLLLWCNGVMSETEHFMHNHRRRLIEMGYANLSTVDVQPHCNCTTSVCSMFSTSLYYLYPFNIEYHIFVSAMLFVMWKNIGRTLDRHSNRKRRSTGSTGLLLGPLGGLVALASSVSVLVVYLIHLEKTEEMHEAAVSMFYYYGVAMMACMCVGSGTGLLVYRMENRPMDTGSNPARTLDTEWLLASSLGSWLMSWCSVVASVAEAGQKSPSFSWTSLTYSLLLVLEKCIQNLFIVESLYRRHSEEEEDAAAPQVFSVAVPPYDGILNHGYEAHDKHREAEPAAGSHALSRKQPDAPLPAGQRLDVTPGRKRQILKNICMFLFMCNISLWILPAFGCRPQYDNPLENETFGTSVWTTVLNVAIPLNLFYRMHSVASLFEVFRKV
Experiment: Whole-cell patch-clamp, inhibition of acid-evoked currents, DrOTOP1 L385W
Format: cell-based, zebrafish (Danio rerio)
Conditions: single cells or mean; for Inhibition of currents: 10 µM
From the text: To functionally test the significance of the two binding sites identified by cryo-EM, we generated point mutations of DrOTOP1 using the binding poses and conformational changes observed in DrOTOP1_C2.2 to guide our mutations. As per the binding pose that best fits our cryo-EM density, C2.2 forms the following interactions in the outer site: hydrophobic packing against many non-polar residues W126, G130, M133, L134, F271, F570, and M573, and π-stacking with W532 (Fig. 5A). In addition, C2.2 could potentially form H-bonds with E267, if the sidechain is protonated or a water bridge is present, and with H574 if it moves closer (Fig. 5A). Likewise, C2.36 presents a heterocyclic nitrogen that can potentially form a H-bond with E267, similarly, provided a protonation or water bridge is present (Fig. 5B). In addition, C2.36 forms a T-shaped π-stacking interaction with H574, whose sidechain has rotated 90 degrees (compared to DrOTOP1_apo), presumably to accommodate the interaction (Fig. 5B). Considering other inhibitors discovered from the second round of screening, many contain functional groups like the carbonyl groups of Group 1 molecules and the heterocyclic nitrogen atoms of Group 2 molecules (Supplementary Fig. 3E), that can potentially form similar H-bonds with E267 as C2.2 and C2.36, assuming the binding modes are similar. In the central site, C2.2 binds with the following interactions: hydrophobic packing with residues V201, F271, A274, V278, and A388, π-stacking with F277, and H-bonding with E384 (Fig. 5C).
We next tested mutations of the central site (L205W, A274W, F277A, E384A L385W, A388W). V201W and S389W, two additional central site mutations, were excluded from the study due to complete loss of channel activity. […]
Whole-cell patch-clamp recording was performed as previously described[6],[22],[25]. Recordings were made with an Axopatch 200B amplifier, digitized with a Digidata 1322a 16-bit data acquisition system, acquired with pClamp 8.2 and analyzed with Clampfit 10 (Molecular Devices). […]

C=C(C)COc1ccccc1NC(=O)c1nc[nH]c1C [C2.2]
Inhibition of currents (mean): 74.03% | Inhibition of currents (single cells): 74.8228% and 76.1135% and 70.5882% and 77.6399% | inhibition at 10 µM: 71%

— PMC12549899 (Nature Communications, 2025)
